Consider 19 compounds from patent US7358250B2, “Pyrrolo[2,3-d]pyrimidines that modulate ACK1 activity” (Amgen Inc., priority 2004, dated 2008).

The target of assay [1] is T1, LCK (Homo sapiens, UniProt P06239).
T1 construct: 15 μL of LCK KD GST (225-509) for a final volume of 40 μL; GST
Description: LCK-Homogeneous Time Resolved Fluorescent (HTRF) Kinase Assay. The assay is classed as biochemical. The note with it: LCK KD GST (225-509). On the procedure: The LCK HTRF assay begins with LCK in the presence of ATP phosphorylating the biotinylated peptide Gastrin. The reaction incubates for 90 min. To quench the assay detection reagents are added which both stop the reaction by diluting out the enzyme and chelating the metals due to the presence of EDTA. Once the detection reagents are added the assay incubates for 30 min to allow for equilibration of the detection reagents.
The final concentration of gastrin is 1.2 μM. The final concentration of ATP is 0.5 μM (Km app=[…]) and the final concentration of LCK is […]. Buffer conditions are as follows: 50 mM HEPES pH 7.5, 50 mM NaCl, 20 mM MgCl, 5 mM MnCl, 2 mM DTT, 0.05% BSA.
The assay is quenched and stopped with 160 μL of detection reagent. Detection reagents are as follows: Buffer made of 50 mM Tris, pH 7.5, 100 mM NaCl, 3 mM EDTA, 0.05% BSA, 0.1% Tween20. Added to this buffer prior to reading is Steptavidin allophycocyanin (SA-APC) at a final conc in the assay of 0.0004 mg/mL, and europilated anti-phosphotyrosine Ab (Eu-anti-PY) at a final conc of 0.025 nM.
The assay plate is read in either a Discovery or a RubyStar. The eu-anti-PY is excited at 320 nm and emits at 615 nm to excite the SA-APC which in turn emits at 655 nm. The ratio of SA-APC at 655 nm (excited due to close proximity to the Eu-anti-PY because of phosphorylation of the peptide) to free Eu-anti-PY at 615 nm will give substrate phosphorylation.
In general terms: Time-resolved FRET reads energy transfer from a long-lived donor to a nearby acceptor.

Assay [2] deals with C8 cells. Description: ACK1 Cell Based Assay, test (C8) cell line. Conditions: 0.125% FCS, 20 to 24 h, cell viability (Cytotox One kit). As for the experimental part:
The ACK1 cell based assay is designed to find inhibitors of ACK1 kinase activity which would be prime candidates for the development of anticancer drugs. […] This dependency was confirmed utilizing ACK1 specific siRNAs.
For this assay, test (C8) and control (HeLa) cell lines are seeded in 96 well tissue culture plates (BD Falcon) at a density of 2 to 4×10^4 in DMEM/F12 (C8) or DMEM (HeLa) with 0.125% FCS in the presence of ACK1 inhibitors (final DMSO concentration is 0.5%, all tissue culture media are from Cellgro). After 20 to 24 h incubation at 37° C. and 5% CO2, cell viability is determined using the Cytotox One kit (Promega) according to the manufacturer's instructions.

Assay [3] concerns the target T2, ACK1 (Homo sapiens, UniProt Q07912).
T2 construct: a fusion of an N-terminal (His)6 Tag with amino acids 117 to 489 of ACK1; (His)6 (N); made in house; host or cells: baculovirus infected Hi-5 insect cells
Description: ACK1 Enzymatic Assay. The assay is classed as biochemical. Conditions: 5 μM ATP, ELISA phosphotyrosine readout. On the procedure: IC50 values of inventive compounds may be assessed as follows. […] The substrate of for the reaction is ACK1 itself (autophosphorylation) and poly-Glutamic acid-Tyrosine (PGT (4:1), Sigma catalog #PO275). The PGT is coated to Nunc 96 well plates at 80 μg/mL overnight at 4° C. […] Test compounds are added in 10 μL DMSO, and the reaction is started by addition of 10 μL kinase in assay buffer. The reaction proceeds 2 h at room temperature. Next the plates are washed four times, and the level of tyrosine phosphorylation in a given well is quantified by standard ELISA assay utilizing a phosphotyrosine antibody (PY20, Pierce).
In general terms: An ELISA detects its analyte on a solid surface through an enzyme-linked reagent.

T2 sequence (Q07912 117-489): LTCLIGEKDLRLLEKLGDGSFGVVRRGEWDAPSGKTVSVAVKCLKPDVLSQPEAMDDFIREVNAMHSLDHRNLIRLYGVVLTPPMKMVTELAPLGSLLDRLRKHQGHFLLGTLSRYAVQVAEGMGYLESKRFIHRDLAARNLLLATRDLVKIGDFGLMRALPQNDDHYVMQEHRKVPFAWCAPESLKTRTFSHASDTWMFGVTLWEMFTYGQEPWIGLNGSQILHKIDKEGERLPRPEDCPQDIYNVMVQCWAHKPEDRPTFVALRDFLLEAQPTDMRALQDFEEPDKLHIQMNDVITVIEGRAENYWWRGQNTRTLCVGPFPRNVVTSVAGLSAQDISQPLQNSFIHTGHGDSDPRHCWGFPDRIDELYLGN
T1 sequence (P06239 225-509): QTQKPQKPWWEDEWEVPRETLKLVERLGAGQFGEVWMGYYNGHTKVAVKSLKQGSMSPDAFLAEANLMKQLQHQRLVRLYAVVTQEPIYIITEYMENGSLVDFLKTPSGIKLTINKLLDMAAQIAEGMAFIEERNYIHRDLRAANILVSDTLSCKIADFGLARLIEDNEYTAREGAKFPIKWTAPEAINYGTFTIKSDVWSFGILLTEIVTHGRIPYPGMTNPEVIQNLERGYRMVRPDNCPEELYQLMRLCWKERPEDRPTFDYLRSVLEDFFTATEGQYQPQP

One may read the Ki as a dissociation constant, usually derived from enzyme kinetics or from competition with a known ligand. A low value points to tighter binding. A word on the IC50: it is the midpoint of a concentration-inhibition curve. Low values mean higher potency, high ones lower potency. For the compound `CO[C@@H]1CC[C@H]1CNc1ncnc2[nH]c(-c3ccc(OCCN(C)C)cc3)c(-c3ccccc3)c12` (mixture of isomers) [Example 35, trans/cis-{6-[4-(2-Dimethylamino-ethoxy)-phenyl]-5-phenyl-7H-pyrrolo[2,3-d]pyrimidin-4-yl}-(2-methoxy-cyclobutylmethyl)-amine], the Ki was less than 10 nM in assay [1] and 10 to 100 nM in assay [3]. The IC50 in assay [2] was greater than 100 nM.

Regarding `CN(C)CCOc1ccc(-c2[nH]c3ncnc(NC[C@@H]4CC[C@H]4O)c3c2-c2ccccc2)cc1` (mixture of isomers) [Example 36, trans/cis-2-({6-[4-(2-Dimethylamino-ethoxy)-phenyl]-5-phenyl-7H-pyrrolo[2,3-d]pyrimidin-4-ylamino}-methyl)-cyclobutanol], the IC50 in assay [2] was greater than 100 nM. The compound also yielded a Ki in assay [3] of 10 to 100 nM.

For the compound `CN(C)CCOc1ccc(-c2[nH]c3ncnc(NC[C@H]4CCC[C@H]4O)c3c2-c2ccccc2)cc1` (relative stereo) [Example 37, cis-2-({6-[4-(2-Dimethylamino-ethoxy)-phenyl]-5-phenyl-7H-pyrrolo[2,3-d]pyrimidin-4-ylamino}-methyl)-cyclopentanol], the Ki in assay [1] was less than 10 nM. Besides, the IC50 in assay [2] is greater than 100 nM.

Consider `CN(C)CCOc1ccc(-c2[nH]c3ncnc(NC[C@H]4CCC[C@H]4N)c3c2-c2ccccc2)cc1` (relative stereo) [Example 38, cis-(2-Amino-cyclopentylmethyl)-{6-[4-(2-dimethylamino-ethoxy)-phenyl]-5-phenyl-7H-pyrrolo[2,3-d]pyrimidin-4-yl}-amine], for which the results for the Ki in assay [1] and in assay [3] were 10 to 100 nM and greater than 100 nM, respectively. Moreover, in assay [2], the half-maximal inhibitory concentration (IC50) is greater than 100 nM.

In the case of `CN(C)CCOc1ccc(-c2[nH]c3ncnc(NC[C@H]4CCC[C@H]4NS(C)(=O)=O)c3c2-c2ccccc2)cc1` (relative stereo) [Example 39, cis-N-[2-({6-[4-(2-Dimethylamino-ethoxy)-phenyl]-5-phenyl-7H-pyrrolo[2,3-d]pyrimidin-4-ylamino}-methyl)-cyclopentyl]-methanesulfonamide], the Ki is less than 10 nM in assay [1] and greater than 100 nM in assay [3]. For the same compound, in assay [2], the IC50 is greater than 100 nM.

As for `CN(C)CCOc1ccc(-c2[nH]c3ncnc(NC[C@@H]4CCC[C@H]4N)c3c2-c2ccccc2)cc1` (relative stereo) [Example 40, trans-(2-Amino-cyclopentylmethyl)-{6-[4-(2-dimethylamino-ethoxy)-phenyl]-5-phenyl-7H-pyrrolo[2,3-d]pyrimidin-4-yl}-amine], the inhibitory constant (Ki) was less than 10 nM in assay [1] and greater than 100 nM in assay [3]. In assay [2], the concentration for half-maximal inhibition (IC50) was greater than 100 nM.

For the compound `CN(C)CCOc1ccc(-c2[nH]c3ncnc(NC[C@@H]4CCC[C@H]4NS(C)(=O)=O)c3c2-c2ccccc2)cc1` (relative stereo) [Example 41, trans-N-[2-({6-[4-(2-Dimethylamino-ethoxy)-phenyl]-5-phenyl-7H-pyrrolo[2,3-d]pyrimidin-4-ylamino}-methyl)-cyclopentyl]-methanesulfonamide], the figures for the Ki in assay [1] and in assay [3] were less than 10 nM and 10 to 100 nM, respectively. The IC50 in assay [2] was greater than 100 nM.

For the compound `c1ccc(-c2[nH]c3ncnc(NCCN4CCOCC4)c3c2-c2ccccc2)cc1` [Example 1, (5,6-Diphenyl-7H-pyrrolo[2,3-d]pyrimidin-4-yl)-(2-morpholin-4-ylethyl)-amine], the inhibition constant (Ki) in assay [1] and in assay [3] was 10 to 100 nM throughout. In assay [2], this compound showed an IC50 greater than 100 nM.

With `c1ccc(-c2[nH]c3ncnc(NCC4CCCO4)c3c2-c2ccccc2)cc1` (stereo not drawn) [Example 2, (5,6-Diphenyl-7H-pyrrolo[2,3-d]pyrimidin-4-yl)-(tetrahydrofuran-2-ylmethyl)-amine], the inhibition constant Ki in assay [1] and in assay [3] was less than 10 nM in each case. The compound also yielded a half-inhibitory concentration (IC50) in assay [2] greater than 100 nM.

Regarding `c1ccc(-c2[nH]c3ncnc(NCC4CCCS4)c3c2-c2ccccc2)cc1` (stereo not drawn) [Example 3, (5,6-Diphenyl-7H-pyrrolo[2,3-d]pyrimidin-4-yl)-(tetrahydrothiophen-2-ylmethyl)-amine], the inhibition constant Ki in assay [1] is less than 10 nM; in assay [3], 10 to 100 nM. Moreover, in assay [2], the concentration for half-maximal inhibition (IC50) was greater than 100 nM.

Consider `c1ccc(-c2[nH]c3ncnc(NCC4CCCCO4)c3c2-c2ccccc2)cc1` (stereo not drawn) [Example 4, (5,6-Diphenyl-7H-pyrrolo[2,3-d]pyrimidin-4-yl)-(tetrahydropyran-2-ylmethyl) amine], for which the Ki in assay [1] is less than 10 nM; in assay [3], 10 to 100 nM. The same compound returned a half-maximal inhibitory concentration (IC50) in assay [2] greater than 100 nM.

With `CN(C)S(=O)(=O)c1ccc(-c2[nH]c3ncnc(NC[C@@H]4CCCO4)c3c2-c2ccccc2)cc1` [Example 5, N,N-Dimethyl-4-{5-phenyl-4-[(tetrahydro-furan-2-ylmethyl)-amino]-7H-pyrrolo[2,3-d]pyrimidin-6-yl}-benzenesulfonamide], the inhibition constant (Ki) in assay [1] and in assay [3] was less than 10 nM in each case. In assay [2], this compound returned an IC50 of 10 to 100 nM.

As for `CNS(=O)(=O)c1ccc(-c2[nH]c3ncnc(NCC4CCCO4)c3c2-c2ccccc2)cc1` (stereo not drawn) [Example 6, N-Methyl-4-{5-phenyl-4-[(tetrahydrofuran-2-ylmethyl)-amino]-7H-pyrrolo[2,3-d]pyrimidin-6-yl}-benzenesulfonamide], the Ki in assay [1] and in assay [3] was less than 10 nM each time. This compound showed a half-inhibitory concentration (IC50) in assay [2] of 10 to 100 nM.

Turning to `CCN(CC)S(=O)(=O)c1ccc(-c2[nH]c3ncnc(NCC4CCCO4)c3c2-c2ccccc2)cc1` (stereo not drawn) [Example 7, N,N-Diethyl-4-{5-phenyl-4-[(tetrahydrofuran-2-ylmethyl)-amino]-7H-pyrrolo[2,3-d]pyrimidin-6-yl}-benzenesulfonamide], the Ki in assay [1] and in assay [3] was less than 10 nM each time. In assay [2], this compound gave an IC50 greater than 100 nM.

For the compound `COCCN(CCOC)S(=O)(=O)c1ccc(-c2[nH]c3ncnc(NCC4CCCO4)c3c2-c2ccccc2)cc1` (stereo not drawn) [Example 8, N,N-Bis-(2-methoxyethyl)-4-{5-phenyl-4-[(tetrahydrofuran-2-ylmethyl)-amino]-7H-pyrrolo[2,3-d]pyrimidin-6-yl}-benzenesulfonamide], the Ki in assay [1] and in assay [3] was less than 10 nM throughout. The IC50 in assay [2] is greater than 100 nM.

Turning to `COCCNS(=O)(=O)c1ccc(-c2[nH]c3ncnc(NCC4CCCO4)c3c2-c2ccccc2)cc1` (stereo not drawn) [Example 9, N-(2-Methoxyethyl)-4-{5-phenyl-4-[(tetrahydrofuran-2-ylmethyl)-amino]-7H-pyrrolo[2,3-d]pyrimidin-6-yl}-benzenesulfonamide], the inhibition constant Ki in assay [1] and in assay [3] was less than 10 nM in each case. For the same compound, the IC50 in assay [2] lay in the range of 10 to 100 nM.

Consider `O=S(=O)(c1ccc(-c2[nH]c3ncnc(NCC4CCCO4)c3c2-c2ccccc2)cc1)N1CCOCC1` (stereo not drawn) [Example 10, {6-[4-(Morpholin-4-sulfonyl)-phenyl]-5-phenyl-7H-pyrrolo[2,3-d]pyrimidin-4-yl}-(tetrahydrofuran-2-ylmethyl)-amine], for which the Ki in assay [1] and in assay [3] was less than 10 nM throughout. The compound also gave a 50% inhibitory concentration (IC50) in assay [2] greater than 100 nM.

`O=S(=O)(NCCN1CCOCC1)c1ccc(-c2[nH]c3ncnc(NCC4CCCO4)c3c2-c2ccccc2)cc1` (stereo not drawn) [Example 11, N-(2-Morpholin-4-yl-ethyl)-4-{5-phenyl-4-[(tetrahydrofuran-2-ylmethyl)-amino]-7H-pyrrolo[2,3-d]pyrimidin-6-yl}-benzenesulfonamide]: the Ki in assay [1] and in assay [3] was less than 10 nM in each case. The compound further gave an IC50 in assay [2] of 10 to 100 nM.

On to `CN(C)CCOc1ccc(-c2[nH]c3ncnc(NCC4SCCS4)c3c2-c2ccccc2)cc1` [Example 33, {6-[4-(2-Dimethylaminoethoxy)-phenyl]-5-phenyl-7H-pyrrolo[2,3-d]pyrimidin-4-yl}-[1,3]dithiolan-2-ylmethyl-amine], for which, in assay [1], the inhibition constant Ki was less than 10 nM. The IC50 in assay [2] is less than 10 nM.
